Experimental data taken from publication PMC3912015, “Synthetic Multivalent Antifungal Peptides Effective against Fungi” (PLoS ONE, 2014).
Converted amounts (≈) assume the structure as drawn. Where two headings read alike, the source gives them in different places.

Experiments:
[1] = test system: human conjunctival epithelial cells (IOBA-NHC); assay: cells; format: cell-based; details: Homo sapiens, Epithelial cell, 24 h, 24 h exposure; read-out: EC50 (effective concentration required to kill 50% of human conjunctival epithelial cells)
Description: Immortalized normal human conjunctival epithelial cells (IOBANHC) were a gift from Yolanda Diebold at the University of Valladolid, Spain [31]. IOBA-NHC cells were cultured under standard conditions (humidified atmosphere of 5% CO2 at 37°C) in DMEM/F12 supplemented with 1 µg/ml bovine pancreas insulin, 2 ng/ml mouse epidermal growth factor, 0.1 µg/ml cholera toxin, 5 µg/ml hydrocortisone, 10% fetal bovine serum (FBS), 50 UI/ml penicillin, and 50 UI/ml streptomycin. Cells from passages 50–80 were used in all experiments. Every day, normal culture development was observed by phase-contrast microscopy. Cells were removed by gentle trypsin incubation at confluence and counted. They were seeded into 96 well culture plates (Corning, Schiphol-Rijk, The Netherlands) for microtitration analysis of flow cytotoxicity assay (∼10,000 cells/well). Cultures were kept at 37°C for 24 h. Subconfluent cells (culture surface covering nearly 70%) were then exposed to various peptide concentrations (0.22–225 µM). Cytotoxicity was measured periodically using MultiTox-Fluor Multiplex assay kit (Promega, WI, USA) by measuring the AFC fluorescence (λex = 485 and λem = 520 nm). We report the cell viability after 24 h incubation of the cells with the peptides since there was no detectable toxicity even after 8 h of incubation.

[2] = Isothermal titration calorimetry; format: binding; details: PC SUVs, 15% ergosterol, 25°C
Description: ITC experiments were performed using a Microcal VP-ITC Calorimeter (Microcal, Northampton, MA, USA). SUVs, B4010, and polyene antifungals were dissolved in 10 mM HEPES buffered saline at pH 7.2. […] A total of 40 injections were performed and the heat of reaction produced by each injection was determined by integration of heat flow traces. In a separate experiment, the heat of dilution was determined by titrating SUVs into the buffer solution (without peptide). The heat of dilution was subtracted from the heat changes determined in the peptide/antifungal-liposome experiments.

[3] = test system: clinical isolates of C. albicans 2672R and C. albicans 1976R; assay: MIC against two clinical isolates, with or without 5% human serum; format: cell-based; details: Candida albicans; standard medium without serum
Description: (§1) The yeast strains were cultivated and suspended in Sabouraud’s Dextrose (SD) broth diluted to one sixth at a starting OD600 = ∼0.08 in a flat-bottomed microtitre plate. A serial dilution of peptide in the same broth was mixed with the inoculum to give a final peptide concentration of 0.4–22 µM. The antifungal activity was assessed by monitoring the OD600 in cycles of 30 minutes and an orbital shaking at 100 rpm using an Infinite M200 microplate reader (Tecan Group Ltd., Switzerland) for 24/48 h at 37°C. Cultures without peptides were used as positive controls and broth alone or with 22 µM peptide served as negative controls. The minimum concentration required for complete inhibition was assessed by both visible observations as well as by measuring the OD600 and taken as the MIC. Each experiment was repeated in triplicates. For studying the effects of metal ions, SD broth was adjusted with appropriate concentrations of salts to yield a final concentration of 100 and 135 mM for NaCl and KCl and 0.5–2 mM for CaCl2 and MgCl2. MIC determinations were carried out as described above. C. albicans ATCC10231 cells and salts in broth were taken as a positive control. Salts alone (NaCl, KCl, and CaCl2 and MgCl2) in broth or with 22 µM peptide served as a negative control. The effect of 5% human serum on the activities of B4010 against two C. albicans clinical isolates was determined. The human male serum was centrifuged at 13,000 rpm for 10 mins in order to remove the lipids and the supernatant was collected. The MIC values against clinical isolates of C. albicans 2672R and C. albicans 1976R were determined both in standard medium (SD broth) as well as in standard medium containing 5% serum supernatant as before.

C. albicans DF2672R [4] = assay: Time-kill kinetics assay; format: cell-based
Description: (§2) The time-kill kinetics of B4010 was determined against two strains of C. albicans (ATCC 10231 and DF2672R). The cultures were grown overnight in SD broth and the cell concentration was adjusted to 10^5–10^6 CFU/mL with phosphate buffer. The peptide or antifungals were added to the individual cultures. […] The test solution was incubated at 37°C with constant shaking. 100 µL of the suspension was withdrawn at predetermined time points, serially diluted (10^2 or 10^3 fold) and poured into the SDA plate. The plate was incubated for 48 h at 37°C for colony counting. The data were expressed in terms of % fungal viability relative to the positive control.

[5] = format: biochemical
Description: Small unilamellar vesicles (SUVs) were prepared using PC/PE/PI or PS lipids (5∶2.5∶2.5) containing 15 wt% ergosterol or PC/Cholesterol (10∶1). For the preparation of PC/PE/PI or PS/Erg SUV, the lipids were dissolved in chloroform/methanol (2∶1, v/v) in a glass tube. Ergosterol was dissolved in same solvent and added to lipid mixture to make final ergosterol content of 15 wt%. The Lipid-ergosterol mixture was dried using nitrogen gas to form lipid layer. The film was hydrated in a buffer containing 20 mM PBS (pH 7), vortexed and sonicated. Each cycle of sonication (5 sec, 40°C) was followed by freezing in liquid nitrogen and thawing on a water bath kept at 37°C. The procedure was repeated 5–6 times until an optically clear dispersion appeared. The SUV was divided into two parts. To the first part 50 mM calcein was added and incubated for 1 h. The excess calcein was removed by injecting 100 µL of the calcien-loaded SUV’s into a Ultrahydrogel™ 250 (7.8 mm × 300 mm) column equilibrated with 20 mM PBS (pH 7.0) and eluted isochratically at a flow rate of 1 mL/min for 1.5 column volumes. The calcein-loaded liposomes were mixed with calcein-free liposome (1∶1) to adjust final liposome concentration. Peptide concentration was added to obtain 1∶30 or 1∶15 peptide:liposome ratio. Changes in the fluorescence signal after addition of peptide or Triton X-100 was measured on a PTI spectrofluorometer, using an excitation wavelength of 480 nm and emission wavelength of 512 nm. The Percentage calcein released at each time point was calculated using the equation, [drawing 1]
Where A0 is the observed fluorescence intensity upon addition of peptides, Amin is the average intensity at the baseline (before peptide addition), Amax is the average intensity at the saturation phase after adding 1% Triton X-100. Similar protocol was followed for the preparation of PC/Cholesterol SUVs.

C. albicans ATCC24433 = assay: microbe, parasite or virus in culture; format: cell-based; details: Candida albicans
Description: as §1

C. albicans DF2672R [6] = assay: microbe, parasite or virus in culture; format: cell-based; details: Candida albicans
Description: as §1

C. albicans ATCC10231 = assay: microbe, parasite or virus in culture; format: cell-based; details: Candida albicans
Description: as §1

C. albicans ATCC2091 = assay: microbe, parasite or virus in culture; format: cell-based; details: Candida albicans
Description: as §1

C. albicans DF1976R = assay: microbe, parasite or virus in culture; format: cell-based; details: Candida albicans
Description: as §1

rabbit red blood cells = assay: Haemolytic assay; format: cell-based; details: 4% rabbit erythrocytes, 1 h
Description: Haemolytic activity of peptides and antifungal drugs were determined against rabbit red blood cells. Briefly, serial dilution of peptides/antifungals in PBS was mixed with rRBC (final concentration 4% v/v), incubated at 37°C for 1 h and centrifuged at 3000 rpm for 10 minutes. The release of hemoglobin in the supernatant was monitored by measuring the hemoglobin absorbance at 576 nm. The readings from cell suspension in PBS (without any additives) or 1% Triton-X100 were used as 0% or 100% haemolysis.

F. solani DM3782 = assay: microbe, parasite or virus in culture; format: cell-based; details: Fusarium solani; F. solani DM3782
F. solani DF1500 = assay: microbe, parasite or virus in culture; format: cell-based; details: Fusarium solani; F. solani DF1500
F. solani ATCC36031 = assay: microbe, parasite or virus in culture; format: cell-based; details: Fusarium solani; F. solani ATCC36031
C. albicans ATCC 10231 = assay: Time-kill kinetics assay; format: cell-based; details: 16× MIC
Description: as §2

[7] = ATCC24433, Table 3, read-out: MIC in µM against Ca 24433
[8] = DF2672R, Table 3, read-out: MIC in µM against Ca 2672R
[9] = ATCC10231, Table 3, read-out: MIC in µM against Ca 10231
[10] = ATCC2091, Table 3, read-out: MIC in µM against Ca 2091
[11] = DF1976R, Table 3, read-out: MIC in µM against Ca DF1976R

MIC [3] [µM]	% Calcein released from PC/PE/PS/Erg [5] [%]	MIC (C. albicans ATCC24433; [7]) [µM]	MIC (C. albicans DF2672R [6]; [8]) [µM]	MIC (C. albicans ATCC10231; [9]) [µM]	MIC (C. albicans ATCC2091; [10]) [µM]	MIC (C. albicans DF1976R; [11]) [µM]	SMILES	EC50 [1] [µM]	HC50 (rabbit red blood cells) [µM]	also measured
1.4 (≈ 1.29 µg/mL)	0	1.35 (≈ 1.25 µg/mL)	1.35 (≈ 1.25 µg/mL)	1.35 (≈ 1.25 µg/mL)	< 0.4	1.35 (≈ 1.25 µg/mL)	C[C@@H]1[C@H](O)[C@@H](C)/C=C/C=C/C=C/C=C/C=C/C=C/C=C/[C@H](O[C@@H]2O[C@H](C)[C@@H](O)[C@H](N)[C@@H]2O)C[C@@H]2O[C@](O)(C[C@@H](O)C[C@@H](O)[C@H](O)CC[C@@H](O)C[C@@H](O)CC(=O)O[C@H]1C)C[C@H](O)[C@H]2C(=O)O [Amphotericin B, reference compound]	134 ± 16	59.4 ± 7.8	affinity for membrane bound ergosterol (ITC) [2]: strong affinity; time to maximal effect (C. albicans DF2672R [4]; 16× MIC): less than 8 h
15 (≈ 9.99 µg/mL)	0	15 (≈ 9.99 µg/mL)	15 (≈ 9.99 µg/mL)	15 (≈ 9.99 µg/mL)	7.5 (≈ 4.99 µg/mL)	15 (≈ 9.99 µg/mL)	C[C@@H]1C/C=C/C=C/C=C/C=C/[C@H](O[C@@H]2O[C@H](C)[C@@H](O)[C@H](N)[C@@H]2O)C[C@@H]2O[C@](O)(C[C@@H](O)C[C@H]3O[C@@H]3/C=C/C(=O)O1)C[C@H](O)[C@H]2C(=O)O [Natamycin, reference compound]	212 ± 20.5	139.6 ± 0.18	MIC (F. solani DM3782): 2.4 µM (≈ 1.6 µg/mL); MIC (F. solani DF1500): 2.4 µM (≈ 1.6 µg/mL); MIC (F. solani ATCC36031): 4.7 µM (≈ 3.13 µg/mL); time required to achieve similar endpoints (4 log reduction) (C. albicans ATCC 10231): 24 h; fungicidal action (C. albicans DF2672R [4]; 2× MIC, 24 h exposure): no fungicidal action; MIC (C. albicans ATCC24433; C. albicans ATCC24433, read-out: MIC): 15 µM (≈ 9.99 µg/mL); MIC (C. albicans DF2672R [6]; C. albicans DF2672R, read-out: MIC): 15 µM (≈ 9.99 µg/mL); MIC (C. albicans ATCC10231; C. albicans ATCC10231, read-out: MIC): 15 µM (≈ 9.99 µg/mL); MIC (C. albicans ATCC2091; C. albicans ATCC2091, read-out: MIC): 7.5 µM (≈ 4.99 µg/mL); MIC (C. albicans DF1976R; C. albicans DF1976R, read-out: MIC): 15 µM (≈ 9.99 µg/mL)
